Values quoted from earlier work, collected in US20120201886A1, “Coated Extended Release Pharmaceutical Compositions Containing Paliperidone” (MICRO LABS LIMITED, priority 2010, published 2012).

## Cc1nc2n(c(=O)c1CCN1CCC(c3noc4cc(F)ccc34)CC1)CCCC2O (racemic) [Paliperidone, (RS)-3-[2-[4-(6-fluorobenzo[d]isoxazol-3-yl)-1-piperidyl]ethyl]-7-hydroxy-4-methyl-1,5-diazabicyclo[4.4.0]deca-3,5-dien-2-one]
0.1 N hydrochloric acid
  solubility in 0.1 N hydrochloric acid: soluble
methanol
  solubility in methanol: soluble
Methylene chloride
  solubility in methylene chloride: freely soluble
water
  solubility in water: practically insoluble
